{
  "source": "patent US9657014B2",
  "about": "“Substituted 1,6-naphthyridines” (Hoffmann-La Roche Inc., priority 2012, dated 2017)",
  "data": [
    {"test_system": "human embryonic stem cell derived neural stem cells (NSCs)", "test": "Neural stem cell proliferation assay (neurogenesis assay)", "format": "cell-based", "settings": "Homo sapiens, Neural stem cell, 96 h; Table 1, novel compounds; concentration at which 150% activity of control (100%) is reached; ATP levels (CellTiterGlo) after 4 days incubation", "summary_of_the_method": "(§1)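 NSCs derived from human ES cells by dual SMAD inhibition, seeded on polyornithin/laminin, dosed 4 h later (11 points, 8 μM to 8 nM). After 4 days at 37° C, ATP luminescence read; response = compound/medium control ×100, EC150 = concentration giving 150% of control.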", "units": {"EC (150% of control)": "µM"}, "values": [
      {"molecule": "CC(NC(=O)c1ccc2cncc(-c3ccc(OCC(F)(F)F)cc3)c2n1)C(C)(C)O", "note": "(stereo not drawn) [Example 163, N-(3-Hydroxy-3-methylbutan-2-yl)-8-(4-(2,2,2-trifluoroethoxyl)phenyl)-1,6-naphthyridine-2-carboxamide]", "EC (150% of control)": 0.07},
      {"molecule": "CC(C)(C)CNC(=O)c1ccc2cncc(-c3cc(F)ccc3F)c2n1", "note": "[Example 122, 8-(2,5-Difluorophenyl)-N-neopentyl-1,6-naphthyridine-2-carboxamide]", "EC (150% of control)": 0.12},
      {"molecule": "O=C(c1ccc2cncc(-c3ccc(Cl)cc3F)c2n1)N1CCC(O)C1", "note": "(stereo not drawn) [Example 130, (8-(4-Chloro-2-fluorophenyl)-1,6-naphthyridin-2-yl)(3-hydroxypyrrolidin-1-yl)methanone]", "EC (150% of control)": 0.13},
      {"molecule": "NC(=O)c1ccc2cncc(-c3cccc(F)c3)c2n1", "note": "[Example 78, 8-(3-Fluorophenyl)-1,6-naphthyridine-2-carboxamide]", "EC (150% of control)": 0.05},
      {"molecule": "CC(NC(=O)c1ccc2cncc(-c3ccc(F)cc3)c2n1)c1ccc(S(C)(=O)=O)cc1", "note": "(stereo not drawn) [Example 107, 8-(4-Fluorophenyl)-N-(1-(4-(methylsulfonyl)phenyl)ethyl)-1,6-naphthyridine-2-carboxamide]", "EC (150% of control)": 0.1},
      {"molecule": "COc1cccc(-c2cncc3ccc(C(=O)NCCCn4ccnc4)nc23)c1", "note": "[Example 38, N-(3-(1H-Imidazol-1-yl)propyl)-8-(3-methoxyphenyl)-1,6-naphthyridine-2-carboxamide]", "EC (150% of control)": 1.95},
      {"molecule": "CS(=O)(=O)c1cccc(-c2cncc3ccc(C(N)=O)nc23)c1", "note": "[Example 87, 8-(3-(Methylsulfonyl)phenyl)-1,6-naphthyridine-2-carboxamide]", "EC (150% of control)": 0.79},
      {"molecule": "Cn1cc(-c2cncc3ccc(C(N)=O)nc23)cn1", "note": "[Example 98, 8-(1-Methyl-1H-pyrazol-4-yl)-1,6-naphthyridine-2-carboxamide]", "EC (150% of control)": 0.14},
      {"molecule": "COCCNC(=O)c1ccc2cncc(-c3cccnc3)c2n1", "note": "[Example 19, N-(2-methoxyethyl)-8-(pyridin-3-yl)-1,6-naphthyridine-2-carboxamide]", "EC (150% of control)": 0.49},
      {"molecule": "CC(C)Oc1ccc(-c2cncc3ccc(C(N)=O)nc23)cc1", "note": "[Example 105, 8-(4-Isopropoxyphenyl)-1,6-naphthyridine-2-carboxamide]", "EC (150% of control)": 0.01},
      {"molecule": "COc1cccc(-c2cncc3ccc(C(N)=O)nc23)c1", "note": "[Example 143, 8-(3-Methoxyphenyl)-1,6-naphthyridine-2-carboxamide]", "EC (150% of control)": 0.24},
      {"molecule": "O=C(NCc1ccncc1)c1ccc2cncc(-c3cccc(Cl)c3)c2n1", "note": "[Example 29, 8-(3-Chlorophenyl)-N-(pyridin-4-ylmethyl)-1,6-naphthyridine-2-carboxamide]", "EC (150% of control)": 0.51},
      {"molecule": "O=C(NCC(F)(F)F)c1ccc2cncc(-c3cccc(F)c3)c2n1", "note": "[Example 123, 8-(3-Fluorophenyl)-N-(2,2,2-trifluoroethyl)-1,6-naphthyridine-2-carboxamide]", "EC (150% of control)": 0.38},
      {"molecule": "NC(=O)c1ccc2cncc(-c3ccccc3F)c2n1", "note": "[Example 79, 8-(2-Fluorophenyl)-1,6-naphthyridine-2-carboxamide]", "EC (150% of control)": 0.03},
      {"molecule": "COc1ccccc1-c1cncc2ccc(C(=O)NCc3ccccc3)nc12", "note": "[Example 12, N-Benzyl-8-(2-methoxyphenyl)-1,6-naphthyridine-2-carboxamide]", "EC (150% of control)": 0.17}
    ]},
    {"test_system": "human embryonic stem cell derived neural stem cells (NSCs)", "test": "Neural stem cell proliferation assay (neurogenesis assay)", "format": "cell-based", "settings": "Homo sapiens, Neural stem cell, 96 h; Table 2, known compounds; concentration at which 150% activity of control (100%) is reached; ATP levels (CellTiterGlo) after 4 days incubation", "summary_of_the_method": "as §1", "units": {"EC (150% of control)": "µM"}, "values": [
      {"molecule": "O=C(NCCCn1ccnc1)c1ccc2cncc(-c3ccsc3)c2n1", "note": "[Example 197, 8-Thiophen-3-yl-[1,6]naphthyridine-2-carboxylic acid (3-imidazol-1-yl-propyl)-amide]", "EC (150% of control)": 1.98},
      {"molecule": "NC(=O)c1ccc2cncc(Br)c2n1", "note": "[Example 206, 8-Bromo-1,6-naphthyridine-2-carboxamide]", "EC (150% of control)": 0.8},
      {"molecule": "COc1ccc(-c2cncc3ccc(C(=O)NCc4ccc(C(F)(F)F)nc4)nc23)cc1", "note": "[Example 186, 8-(4-Methoxy-phenyl)-[1,6]naphthyridine-2-carboxylic acid (6-trifluoromethyl-pyridin-3-ylmethyl)-amide]", "EC (150% of control)": 0.67}
    ]}
  ]
}
